Converted amounts (≈) assume the structure as drawn.
Columns and labels:
Type in all cases: cell-based
P. aeruginosa (CiproS) = assay: In vitro MIC, agar dilution; settings: Pseudomonas aeruginosa, P. aeruginosa (CiproS), 24 isolates
E. faecium (VanS) = assay: In vitro MIC, agar dilution; settings: Enterococcus faecium
H. influenzae = assay: In vitro MIC, agar dilution; settings: Haemophilus influenzae
Shigella spp. = assay: microbe, parasite or virus in culture; settings: read-out: MIC Range
P. mirabilis = assay: In vitro MIC, agar dilution; settings: Proteus mirabilis
H. pylori = assay: In vitro MIC, agar dilution; settings: Helicobacter pylori
S. aureus (CiproS) = assay: In vitro MIC, agar dilution; settings: Staphylococcus aureus
Klebsiella spp. = assay: In vitro MIC, agar dilution
E. faecium (CiproS) = assay: In vitro MIC, agar dilution; settings: Enterococcus faecium
C. freundii = assay: In vitro MIC, agar dilution; settings: Citrobacter freundii
P. aeruginosa (CiproR) = assay: In vitro MIC, agar dilution; settings: Pseudomonas aeruginosa
Providencia spp. = assay: In vitro MIC, agar dilution; settings: Providencia spp., 28 isolates
M. avium = assay: In vitro MIC, agar dilution; settings: Mycobacterium avium, M. avium, 20 isolates
E. coli = assay: In vitro MIC, agar dilution; settings: Escherichia coli, 25 isolates
Protocol: (§1) Each plate was inoculated with 1:100 (or 1:10 for slow-growing strains, primarily Micrococcus and Streptococcus) dilutions of up to 32 different microorganisms, using a Steers replicator block calibrated to deliver approximately 10^4 colony forming units (CFU's). The inoculated plates were incubated at from about 35° C. to about 37 ° C. for approximately 20-24 hours. In addition, a control plate using BHI agar containing no test compound was prepared and incubated at the beginning and at the end of each test. The quinolone antibacterial ciprofloxacin was used as a control ("Cntl").
(§2) The numbers below the microorganism species indicate the nunbers of isolates tested. […] The MIC is defined as the lowest concentration of test compound yielding no growth (a slight haze or sparsely isolated colonies at the inoculum spot) as compared to the growth control containing no test compound.

Salmonella spp. = assay: In vitro MIC, agar dilution; settings: 23 isolates
Protocol: as §1, §2

Enterococcus spp. (VanR) = assay: In vitro MIC, agar dilution; settings: Enterococcus spp. (VanR), 21 isolates
Enterobacter spp. = assay: In vitro MIC, agar dilution
M. catarrhalis = assay: In vitro MIC, agar dilution; settings: Moraxella catarrhalis
S. aureus (CiproR) = assay: In vitro MIC, agar dilution; settings: Staphylococcus aureus
S. pneumoniae (PenR) = assay: In vitro MIC, agar dilution; settings: Streptococcus pneumoniae
S. epidermidis (CiproS) = assay: In vitro MIC, agar dilution; settings: Staphylococcus epidermidis
S. epidermidis (CiproR) = assay: In vitro MIC, agar dilution; settings: Staphylococcus epidermidis
E. faecium (CiproR) = assay: In vitro MIC, agar dilution; settings: Enterococcus faecium, read-out: MIC Range
B. fragilis = assay: In vitro MIC, agar dilution; settings: Bacteroides fragilis
M. pneumoniae = assay: In vitro MIC, agar dilution; settings: Mycoplasmoides pneumoniae, read-out: MIC Range
E. faecalis (VanS) = assay: In vitro MIC, agar dilution; settings: Enterococcus faecalis
C. difficile = assay: In vitro MIC, agar dilution; settings: Clostridioides difficile; C. difficile, 10 isolates; read-out: MIC90
S. pneumoniae (CiproR) = assay: In vitro MIC, agar dilution; settings: Streptococcus pneumoniae, read-out: MIC Range
Legionella spp. = assay: microbe, parasite or virus in culture; settings: Legionella

`N[C@@H]1[C@H]2CN(c3nc4c(cc3F)c(=O)c(C(=O)O)cn4-c3ccc(F)cc3F)C[C@@H]12` [Trovafloxacin, trovafloxacin] was tested, and the MIC50 (P. aeruginosa (CiproS); read-out: MIC50) was 0.5 µg/mL (≈ 1.2 µM), the MIC90 (P. aeruginosa (CiproS); read-out: MIC90) was 2 µg/mL (≈ 4.8 µM) and the MIC (P. aeruginosa (CiproS); read-out: MIC Range) was 0.12 to 4 µg/mL (≈ 0.288 to 9.61 µM). It also gave an MIC (E. faecium (VanS); read-out: MIC Range) of 0.25 to 4 µg/mL (≈ 0.6 to 9.61 µM), an MIC50 (E. faecium (VanS); E. faecium (VanS), 11 isolates, read-out: MIC50) of 2 µg/mL (≈ 4.8 µM) and an MIC90 (E. faecium (VanS); E. faecium (VanS), 11 isolates, read-out: MIC90) of 2 µg/mL (≈ 4.8 µM). For the same compound, the MIC90 (H. influenzae) was 0.03 µg/mL (≈ 0.0721 µM), the MIC50 (H. influenzae; H. influenzae, 18 isolates, read-out: MIC50) was 0.015 µg/mL (≈ 0.036 µM) and the MIC (H. influenzae; H. influenzae, 18 isolates, read-out: MIC Range) was 0.008 to 0.06 µg/mL (≈ 0.0192 to 0.144 µM). The MIC (Shigella spp.) was 0.015 to 0.06 µg/mL (≈ 0.036 to 0.144 µM), the MIC90 (P. mirabilis) was 0.5 µg/mL (≈ 1.2 µM) and the MIC (P. mirabilis; read-out: MIC Range) was 0.25 to 0.5 µg/mL (≈ 0.6 to 1.2 µM). For the same compound, the MIC50 (P. mirabilis; P. mirabilis, 20 isolates, read-out: MIC50) was 0.25 µg/mL (≈ 0.6 µM), the MIC90 (H. pylori) was 0.5 µg/mL (≈ 1.2 µM) and the MIC50 (H. pylori; H. pylori, 17 isolates, read-out: MIC50) was 0.12 µg/mL (≈ 0.288 µM). It also gave an MIC (H. pylori; H. pylori, 17 isolates, read-out: MIC Range) of 0.06 to 1 µg/mL (≈ 0.144 to 2.4 µM), an MIC50 (S. aureus (CiproS)) of 0.03 µg/mL (≈ 0.0721 µM) and an MIC90 (S. aureus (CiproS)) of 0.03 µg/mL (≈ 0.0721 µM). The MIC (S. aureus (CiproS); S. aureus (CiproS), 21 isolates, read-out: MIC Range) was 0.008 to 0.03 µg/mL (≈ 0.0192 to 0.0721 µM), the MIC90 (Klebsiella spp.; Klebsiella) was 0.25 µg/mL (≈ 0.6 µM) and the MIC50 (Klebsiella spp.; Klebsiella spp., 29 isolates, read-out: MIC50) was 0.12 µg/mL (≈ 0.288 µM). The MIC (Klebsiella spp.; Klebsiella spp., 29 isolates, read-out: MIC Range) was 0.015 to 0.5 µg/mL (≈ 0.036 to 1.2 µM), the MIC (E. faecium (CiproS); read-out: MIC Range) was 0.25 to 1 µg/mL (≈ 0.6 to 2.4 µM) and the MIC50 (E. faecium (CiproS); E. faecium (CiproS), 16 isolates, read-out: MIC50) was 0.5 µg/mL (≈ 1.2 µM). It also gave an MIC90 (E. faecium (CiproS); E. faecium (CiproS), 16 isolates, read-out: MIC90) of 1 µg/mL (≈ 2.4 µM), an MIC90 (C. freundii) of 0.5 µg/mL (≈ 1.2 µM) and an MIC50 (C. freundii; C. freundii, 20 isolates, read-out: MIC50) of 0.06 µg/mL (≈ 0.144 µM). It also gave an MIC (C. freundii; C. freundii, 20 isolates, read-out: MIC Range) of 0.003 to 1 µg/mL (≈ 0.00721 to 2.4 µM), an MIC90 (P. aeruginosa (CiproR)) greater than 128 µg/mL and an MIC50 (P. aeruginosa (CiproR); P. aeruginosa (CiproR), 20 isolates, read-out: MIC50) greater than 128 µg/mL. For the same compound, the MIC50 (Providencia spp.; read-out: MIC50) was 0.25 µg/mL (≈ 0.6 µM), the MIC90 (Providencia spp.; read-out: MIC90) was 2 µg/mL (≈ 4.8 µM) and the MIC (Providencia spp.; read-out: MIC Range) was 0.03 to 2 µg/mL (≈ 0.0721 to 4.8 µM). It also gave an MIC50 (M. avium; read-out: MIC50) of 32 µg/mL (≈ 76.9 µM), an MIC90 (M. avium; read-out: MIC90) of 64 µg/mL (≈ 154 µM) and an MIC (M. avium; read-out: MIC Range) of 8 to 128 µg/mL (≈ 19.2 to 307 µM). The MIC (E. coli) was 0.015 to 0.03 µg/mL (≈ 0.036 to 0.0721 µM), the MIC50 (E. coli; read-out: MIC50) was 0.03 µg/mL (≈ 0.0721 µM) and the MIC90 (E. coli; read-out: MIC90) was 0.03 µg/mL (≈ 0.0721 µM). For the same compound, the MIC (Salmonella spp.) was 0.03 to 1 µg/mL (≈ 0.0721 to 2.4 µM), the MIC50 (Salmonella spp.; read-out: MIC50) was 0.06 µg/mL (≈ 0.144 µM) and the MIC90 (Salmonella spp.; read-out: MIC90) was 0.12 µg/mL (≈ 0.288 µM). It also gave an MIC50 (Enterococcus spp. (VanR); read-out: MIC50) of 1 µg/mL (≈ 2.4 µM), an MIC90 (Enterococcus spp. (VanR); read-out: MIC90) of 1 µg/mL (≈ 2.4 µM) and an MIC (Enterococcus spp. (VanR); read-out: MIC Range) of 0.06 to 32 µg/mL (≈ 0.144 to 76.9 µM). For the same compound, the MIC90 (Enterobacter spp.; Enterobacter) was 0.12 µg/mL (≈ 0.288 µM), the MIC50 (Enterobacter spp.; Enterobacter spp., 35 isolates, read-out: MIC50) was 0.12 µg/mL (≈ 0.288 µM) and the MIC (Enterobacter spp.; Enterobacter spp., 35 isolates, read-out: MIC Range) was 0.015 to 0.5 µg/mL (≈ 0.036 to 1.2 µM). The MIC50 (M. catarrhalis) was 0.03 µg/mL (≈ 0.0721 µM), the MIC90 (M. catarrhalis) was 0.06 µg/mL (≈ 0.144 µM) and the MIC (M. catarrhalis; M. catarrhalis, 18 isolates, read-out: MIC Range) was 0.015 to 0.25 µg/mL (≈ 0.036 to 0.6 µM). The MIC (S. aureus (CiproR); read-out: MIC Range) was 0.25 to 4 µg/mL (≈ 0.6 to 9.61 µM), the MIC50 (S. aureus (CiproR); S. aureus (CiproR), 25 isolates, read-out: MIC50) was 2 µg/mL (≈ 4.8 µM) and the MIC90 (S. aureus (CiproR); S. aureus (CiproR), 25 isolates, read-out: MIC90) was 2 µg/mL (≈ 4.8 µM). For the same compound, the MIC90 (S. pneumoniae (PenR)) was 0.25 µg/mL (≈ 0.6 µM), the MIC (S. pneumoniae (PenR); read-out: MIC Range) was 0.06 to 0.25 µg/mL (≈ 0.144 to 0.6 µM) and the MIC50 (S. pneumoniae (PenR); S. pneumoniae (PenR), 25 isolates, read-out: MIC50) was 0.25 µg/mL (≈ 0.6 µM). For the same compound, the MIC90 (S. epidermidis (CiproS)) was 0.06 µg/mL (≈ 0.144 µM), the MIC50 (S. epidermidis (CiproS); S. epidermidis (CiproS), 23 isolates, read-out: MIC50) was 0.06 µg/mL (≈ 0.144 µM) and the MIC (S. epidermidis (CiproS); S. epidermidis (CiproS), 23 isolates, read-out: MIC Range) was 0.015 to 0.06 µg/mL (≈ 0.036 to 0.144 µM). For the same compound, the MIC (S. epidermidis (CiproR); read-out: MIC Range) was 1 to 16 µg/mL (≈ 2.4 to 38.4 µM), the MIC50 (S. epidermidis (CiproR); S. epidermidis (CiproR), 11 isolates, read-out: MIC50) was 4 µg/mL (≈ 9.61 µM) and the MIC90 (S. epidermidis (CiproR); S. epidermidis (CiproR), 11 isolates, read-out: MIC90) was 16 µg/mL (≈ 38.4 µM). It also gave an MIC (E. faecium (CiproR)) of 2 to 32 µg/mL (≈ 4.8 to 76.9 µM), an MIC90 (B. fragilis) of 0.5 µg/mL (≈ 1.2 µM) and an MIC (B. fragilis; read-out: MIC Range) of 0.12 to 1 µg/mL (≈ 0.288 to 2.4 µM). For the same compound, the MIC50 (B. fragilis; B. fragilis, 18 isolates, read-out: MIC50) was 0.25 µg/mL (≈ 0.6 µM), the MIC (M. pneumoniae) was 0.12 to 0.25 µg/mL (≈ 0.288 to 0.6 µM) and the MIC (E. faecalis (VanS); read-out: MIC Range) was 0.25 to 1 µg/mL (≈ 0.6 to 2.4 µM). For the same compound, the MIC50 (E. faecalis (VanS); E. faecalis (VanS), 17 isolates, read-out: MIC50) was 0.5 µg/mL (≈ 1.2 µM), the MIC90 (E. faecalis (VanS); E. faecalis (VanS), 17 isolates, read-out: MIC90) was 1 µg/mL (≈ 2.4 µM) and the MIC90 (C. difficile) was 2 µg/mL (≈ 4.8 µM). For the same compound, the MIC (S. pneumoniae (CiproR)) was 0.5 to 1 µg/mL (≈ 1.2 to 2.4 µM), the MIC50 (Legionella spp.) was 0.12 µg/mL (≈ 0.288 µM) and the MIC90 (Legionella spp.) was 0.25 µg/mL (≈ 0.6 µM). For the same compound, the MIC (Legionella spp.; read-out: MIC Range) was 0.12 to 0.25 µg/mL (≈ 0.288 to 0.6 µM).
